Results reported in paper PMC4359082 (Nature, 2014).

Legend:
[1] = target: T1, MrgprB2 (Mus musculus, UniProt Q3KNA1); assay: Calcium imaging in HEK293 cells expressing MrgprB2; format: cell-based; details: HEK293 cells heterologously expressing MrgprB2
T1 sequence (Q3KNA1 1-338): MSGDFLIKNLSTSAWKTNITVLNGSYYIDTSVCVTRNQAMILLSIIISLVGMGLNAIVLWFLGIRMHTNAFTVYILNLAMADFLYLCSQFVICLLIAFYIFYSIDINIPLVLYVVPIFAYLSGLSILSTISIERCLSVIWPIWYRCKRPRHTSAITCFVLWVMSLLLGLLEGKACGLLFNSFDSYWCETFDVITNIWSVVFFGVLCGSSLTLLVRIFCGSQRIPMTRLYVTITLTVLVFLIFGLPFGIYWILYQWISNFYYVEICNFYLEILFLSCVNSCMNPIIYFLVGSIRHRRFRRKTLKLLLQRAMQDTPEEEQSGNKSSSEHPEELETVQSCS

[2] = Drug preparation and storage: stability of solutions; format: physicochemical; details: solutions prepared on the day of the experiment
[3] = system: mouse peritoneal mast cells; assay: Mouse peritoneal mast cell histamine release assay; format: cell-based; details: 5 minutes, room temperature; HTRF histamine assay

| response of MrgprB2-HEK cells ([Ca2+]i) [1] | Compound | stability of potency of drug solutions [2] | histamine release from WT peritoneal mast cells (MrgprB2MUT mast cells released substantially less) [3] |
| --- | --- | --- | --- |
| no response | CCN(CC)CCCC(C)Nc1ccnc2cc(Cl)ccc12 (stereo not shown) [CQ, chloroquine] | – | – |
| – | COc1cc2c3cc1Oc1cc(ccc1O)C[C@@H]1c4c(cc(OC)c(O)c4Oc4ccc(cc4)C[C@@H]3N(C)CC2)CC[N+]1(C)C [tubocurarine] | susceptible to oxidation and/or freeze-thaw effects | – |
| – | COc1ccc(CC2c3cc(OC)c(OC)cc3CC[N+]2(C)CCC(=O)OCCCCCOC(=O)CC[N+]2(C)CCc3cc(OC)c(OC)cc3C2Cc2ccc(OC)c(OC)c2)cc1OC (stereo not shown) [Atracurium, atracurium] | susceptible to oxidation and/or freeze-thaw effects | induced histamine release |
| – | COc1cc2c(cc1OC)[C@@H](Cc1cc(OC)c(OC)c(OC)c1)[N+](C)(CCCOC(=O)CC/C=C/CCC(=O)OCCC[N+]1(C)CCc3cc(OC)c(OC)cc3[C@H]1Cc1cc(OC)c(OC)c(OC)c1)CC2 (stereo partly shown) [mivacurium] | susceptible to oxidation and/or freeze-thaw effects | – |
| – | icatibant | – | induced histamine release |
| – | O=C(O)c1cn(C2CC2)c2cc(N3CCNCC3)c(F)cc2c1=O [Ciprofloxacin, ciprofloxacin] | – | induced histamine release |
